Where two headings read alike, the source gives them in different places.

For one test, the target named is T1, tankyrase 2 (TNKS2) (Homo sapiens, UniProt Q9H2K2).
T1 construct: His6-tankyrase 2 (construct: 934-1166) (His6-TNKS2)
In words: μHTS-TNKS-IWR2 TR-FRET Binding Assay (Example 118), His6-TNKS2 substituted. To be noted: procedure in Example 118 with His6-TNKS2. On the procedure: (§1) μHTS-TNKS-IWR2 TR-FRET Binding Assay (10 μL/well in BD1536-well plate, a single point)
(§2) Reagents and Stock Solutions
Tankyrase 1 (TNKS1): 184.3 μM=5.2 mg/mL His6-TNKS1, MW=28.2 KDa (construct: 1088-1327, 1266M) in 20 mM Tris pH 8, 150 mM NaCl, 10% glycerol, and 0.5 mM TCEP. Alternatively, His6-tankyrase 2 (construct: 934-1166) (His6-TNKS2) or His6-PARP1 (full length) can be substituted for His6-TNKS 1.
(§3) Biotin-4-((1S,2R,6S,7R)-3,5-Dioxo-4-aza-tricyclo[5.2.1.0*2,6]dec-8-en-4-yl)-N-(4-methyl-quinolin-8-yl)-benzamide (Biotin-IWR2): 10 mM Biotin-IWR2 stock in DMSO, stored at −20° C.
Positive control: 10 mM 2-(4-Trifluoromethyl-phenyl)-3,5,7,8-tetrahydro-thiopyrano[4,3-d]pyrimidin-4-one (XAV939) in DMSO, stored at −20° C.
APC-anti-His Ab: 8.50 μM SL-APC, 8.26 μM anti-6His antibody-SureLight APC (Columia Bioscience, Catalog Number D3-1711, Lot Number N01010-AAH04)
Assay plate: BD 1536-well, clear/black plate (Catalog Number 353255)
(§4) Assay buffer 1a (AB1a) for TNKS dilution: 50 mM Tris, pH 7.4, 100 mM sodium chloride solution, 1 mM magnesium chloride solution, 1 mM DL-dithiothreitol solution, 0.2 mg/mL bovine serum albumin solution, 0.025% NP-40.
(§5) Assay buffer 1b (AB1b) for Biotin-IWR2 dilution: 50 mM Tris, pH 7.4, 100 mM sodium chloride solution, 1 mM magnesium chloride solution, 1 mM DL-dithiothreitol solution, 0.2 mg/mL bovine serum albumin solution, 0.05% NP-40
(§6) Assay buffer 1c (AB1c) for compound dilution: 50 mM Tris, pH 7.4, 100 mM sodium chloride solution, 1 mM magnesium chloride solution, 1 mM DL-dithiothreitol solution, 0.2 mg/mL bovine serum albumin solution
(§7) Assay buffer 2 (AB2) for Eu/APC: 50 mM Tris, pH 7.4, 100 mM sodium chloride solution, 1 mM magnesium chloride solution, 0.2 mg/mL bovine serum albumin solution
(§8) Reagent Stock Solution Preparation
Prepare Biotinylated IWR2 stock solution (3.33× stock) for TOTL and compound wells: 200 nM Biotin-IWR2 in 5% DMSO/AB1b buffer
(§9) Prepare BLANK well stock solution: 5% DMSO/AB1b buffer
Prepare POSITIVE CONTROL well stock solution (3.33× stock): 200 nM XAV939 in 200 nM Biotin-IWR2/5% DMSO/AB1b buffer
(§10) Prepare TNKS 1 stock solution (5× stock): 300 nM TNKS in AB1a buffer. (Alternatively, use TNKS2 or PARP1 stock solutions.)
Prepare Eu/APC stock solution (5× stock): 3.5 nM Eu-SA/50 nM APC-His6Ab in AB2 buffer.
Add 25 μL/well 1.5% DMSO/AB1c buffer in each compound well to the compound concentration at 74 μM in 8.8% DMSO/AB1c buffer or in the 2 μL DMSO CONTROL wells (BLANK, TOTAL and POSITIVE wells) in the compound plate. Transfer 3 μL/well of above solution (solution 1,2,3) to an empty assay plate (BD1536-well plate) as follows: • TOTAL and cpd wells: Solution 1 (Biotin-IWR2): • BLANK wells: Solution 2 (No Biotin-IWR2): • POSITIVE CONTROL wells: Solution 3 (Biotin-IWR2+XAV939)
Transfer 3 μL/well of the above diluted compound solutions or compound dilution buffer to the above assay plate. Add 2 μL/well of 300 nM TNKS stock solution (4) to every well in the above assay plate. Centrifuge the assay plate at 2100 rpm for 2 min. Incubate the assay plate at 26° C. for 30 minutes. Add 2 μL/well 3.5 nMEu/50 nM APC solution (5) to every well in the above assay plate. Centrifuge the assay plate at 2100 rpm for 2 min. Incubate the assay plate at 26° C. for 60 min. Read the assay plate immediately at excitation wavelength of 330 nm and emission wavelength of […] in time resolved fluorescence mode.
XAV939 (+ve control): 60 nM at ˜70% Inhibition
General Library compounds: 22.23 μM in 4% DMSO
A general note: TR-FRET usually uses a lanthanide donor and a delayed reading to cut background.

The target in a further test is T2, Tankyrase 1 (TNKS1) (Homo sapiens, UniProt O95271).
T2 construct: His6-TNKS1, MW=28.2 KDa (construct: 1088-1327, 1266M)
T2 sequence (O95271 1088-1327): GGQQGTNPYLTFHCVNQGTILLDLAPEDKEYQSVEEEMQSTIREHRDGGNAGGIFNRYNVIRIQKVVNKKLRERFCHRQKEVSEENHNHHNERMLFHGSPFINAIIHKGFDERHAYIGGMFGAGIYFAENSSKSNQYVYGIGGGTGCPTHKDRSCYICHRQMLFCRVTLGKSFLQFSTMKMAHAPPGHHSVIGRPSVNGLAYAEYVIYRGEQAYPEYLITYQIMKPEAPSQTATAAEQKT
In words: μHTS-TNKS-IWR2 TR-FRET Binding Assay (Example 118), His6-TNKS1. On the procedure:
as §1, §2, §3
(XAV939) in DMSO, stored at −20° C.
as §4, §5, §6, §7, §8, §9, §10
Transfer 3 μL/well of above solution (solution 1,2,3) to an empty assay plate (BD1536-well plate) as follows: • TOTAL and cpd wells: Solution 1 (Biotin-IWR2): • BLANK wells: Solution 2 (No Biotin-IWR2): • POSITIVE CONTROL wells: Solution 3 (Biotin-IWR2+XAV939)
Transfer 3 μL/well of the above diluted compound solutions or compound dilution buffer to the above assay plate. Add 2 μL/well of 300 nM TNKS stock solution (4) to every well in the above assay plate. Centrifuge the assay plate at 2100 rpm for 2 min. Incubate the assay plate at 26° C. for 30 minutes. Add 2 μL/well 3.5 nMEu/50 nM APC solution (5) to every well in the above assay plate. Centrifuge the assay plate at 2100 rpm for 2 min. Incubate the assay plate at 26° C. for 60 min.

T1 sequence (Q9H2K2 934-1166): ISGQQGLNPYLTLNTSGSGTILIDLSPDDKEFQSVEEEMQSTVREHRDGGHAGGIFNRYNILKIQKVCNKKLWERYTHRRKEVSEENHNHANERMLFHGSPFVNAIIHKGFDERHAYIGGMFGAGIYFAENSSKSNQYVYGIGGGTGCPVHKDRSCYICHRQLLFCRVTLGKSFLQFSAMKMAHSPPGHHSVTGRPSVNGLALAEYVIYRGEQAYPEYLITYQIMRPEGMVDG

For orientation: IC50 means the concentration needed to halve the response being measured. Consider `Cn1ncc2c(=O)[nH]c(N3CCN(c4cc(O)cc(F)c4F)CC3)nc21` [Compound I-57, 6-[4-(2 3-difluoro-5-hydroxy-phenyl)piperazin-1-yl]-1-methyl-5H-pyrazolo[3 4-d]pyrimidin-4-one], for which the half-inhibitory concentration (IC50) came out at 56.4 nM at tankyrase 2 (TNKS2) and 66 nM on Tankyrase 1 (TNKS1).

Consider `Cn1ncc2c(=O)[nH]c(N3CCN(c4ccc(F)cc4S(C)(=O)=O)CC3)nc21` [Compound I-22, 6-[4-(4-fluoro-2-methylsulfonyl-phenyl)piperazin-1-yl]-1-methyl-5H-pyrazolo[3 4-d]pyrimidin-4-one], for which the concentration for half-maximal inhibition (IC50) on tankyrase 2 (TNKS2) was 55 nM; on Tankyrase 1 (TNKS1), 44 nM.

Take `COCCOc1cc(F)c(N2CCN(c3cc4c(cnn4C)c(=O)[nH]3)CC2)c(F)c1` [Compound I-53, 6-[4-[2 6-difluoro-4-(2-methoxyethoxy)phenyl]piperazin-1-yl]-1-methyl-5H-pyrazolo[4 3-c]pyridin-4-one]: the IC50 at tankyrase 2 (TNKS2) amounted to 19.3 nM; at Tankyrase 1 (TNKS1) it was 26 nM.

In the case of `Cn1ncc2c(=O)[nH]c(N3CCN(c4ccccc4C#N)CC3)cc21` [Compound I-17, 2-[4-(1-methyl-4-oxo-5H-pyrazolo[4 3-c]pyridin-6-yl)piperazin-1-yl]benzonitrile], the IC50 at tankyrase 2 (TNKS2) stood at 97 nM; at Tankyrase 1 (TNKS1), 103 nM.

In the case of `Cn1ncc2c(=O)[nH]c(N3CCC(C#N)(c4ccc(F)cc4)CC3)nc21` [Compound I-33, 4-(4-fluorophenyl)-1-(1-methyl-4-oxo-5H-pyrazolo[3 4-d]pyrimidin-6-yl)piperidine-4-carbonitrile], the IC50 was found to be 21.7 nM at tankyrase 2 (TNKS2) and 32 nM on Tankyrase 1 (TNKS1).

For `Cn1ncc2c(=O)[nH]c(N3CCN(c4ccc(F)cc4F)CC3)cc21` [Compound I-16, 6-[4-(2 4-difluorophenyl)piperazin-1-yl]-1-methyl-5H-pyrazolo[4 3-c]pyridin-4-one], the IC50 at tankyrase 2 (TNKS2) was found to be 47.4 nM; at Tankyrase 1 (TNKS1) it was 48 nM.

As for `Cn1ncc2c(=O)[nH]c(-c3ccc(C(F)(F)F)cn3)nc21` [Compound I-50, 1-methyl-6-[5-(trifluoromethyl)-2-pyridyl]-5H-pyrazolo[3 4-d]pyrimidin-4-one], the IC50 on tankyrase 2 (TNKS2) turned out to be 325 nM; on Tankyrase 1 (TNKS1), 286 nM.

As to `Cn1ncc2c(=O)[nH]c(N3CCN(c4ccc(-c5nnn[nH]5)cc4F)CC3)nc21` [Compound I-31, 6-[4-[2-fluoro-4-(1H-tetrazol-5-yl)phenyl]piperazin-1-yl]-1-methyl-5H-pyrazolo[3 4-d]pyrimidin-4-one], the concentration for half-maximal inhibition (IC50) worked out at 24.6 nM on tankyrase 2 (TNKS2) and 26 nM at Tankyrase 1 (TNKS1).

On to `Cn1ncc2c(=O)[nH]c(N3CCN(c4ncccc4C(F)(F)F)CC3)nc21` [Compound I-20, 1-methyl-6-[4-[3-(trifluoromethyl)-2-pyridyl]piperazin-1-yl]-5H-pyrazolo[3 4-d]pyrimidin-4-one], for which the half-inhibitory concentration (IC50) stood at 43.2 nM on tankyrase 2 (TNKS2) and 31 nM on Tankyrase 1 (TNKS1).

With `Cn1ncc2c(=O)[nH]c(N3CCN(c4ccc(F)c(C(F)(F)F)c4)CC3)nc21` [Compound I-39, 6-[4-(4-fluoro-3-(trifluoromethyl)phenyl]piperazin-1-yl]-1-methyl-5H-pyrazolo[3 4-d]pyrimidin-4-one], the figures for the half-inhibitory concentration (IC50) at tankyrase 2 (TNKS2) and at Tankyrase 1 (TNKS1) were 303 nM and 331 nM, respectively.

In the case of `COCCOc1cc(F)c(N2CCN(c3nc4c(cnn4C)c(=O)[nH]3)CC2)c(F)c1` [Compound I-1, 6-[4-[2 6-difluoro-4-(2-methoxyethoxy)phenyl]piperazin-1-yl]-1-methyl-5H-pyrazolo[3 4-d]pyrimidin-4-one], the IC50 at tankyrase 2 (TNKS2) was found to be 24.4 nM; at Tankyrase 1 (TNKS1) it was 7.6 nM.

For `Cn1ncc2c(=O)[nH]c(N3CCN(c4ccc(C(=O)O)cc4F)CC3)nc21` [Compound I-40, 3-fluoro-4-[4-(1-methyl-4-oxo-5H-pyrazolo[3 4-d]pyrimidin-6-yl)piperazin-1-yl]benzoic acid], the values for the 50% inhibitory concentration (IC50) at tankyrase 2 (TNKS2) and at Tankyrase 1 (TNKS1) were 39.4 nM and 41 nM, respectively.

For the molecule `Cn1ncc2c(=O)[nH]c(N3CCN(CC4CCCO4)CC3)nc21` (stereo not shown) [Compound I-32, 1-methyl-6-[4-(tetrahydrofuran-2-ylmethyl)piperazin-1-yl]-5H-pyrazolo[3 4-d]pyrimidin-4-one], the results for the IC50 on tankyrase 2 (TNKS2) and at Tankyrase 1 (TNKS1) were 178 nM and 155 nM, respectively.

As for `Cn1ncc2c(=O)[nH]c(N3CCN(c4ccc(C#N)cc4F)CC3)nc21` [Compound I-28, 3-fluoro-4-[4-(1-methyl-4-oxo-5H-pyrazolo[3 4-d]pyrimidin-6-yl)piperazin-1-yl]benzonitrile], the values for the concentration for half-maximal inhibition (IC50) on tankyrase 2 (TNKS2) and at Tankyrase 1 (TNKS1) were 76.5 nM and 51 nM, respectively.

Consider `Cn1ncc2c(=O)[nH]c(N3CCN(c4ccc(C(C)(C)O)cc4F)CC3)nc21` [Compound I-44, 6-[4-[2-fluoro-4-(1-hydroxy-1-methyl-ethyl)phenyl]piperazin-1-yl]-1-methyl-5H-pyrazolo[3 4-d]pyrimidin-4-one], for which the 50% inhibitory concentration (IC50) at tankyrase 2 (TNKS2) was determined as 95.3 nM; at Tankyrase 1 (TNKS1), 34 nM.

As to `Cn1ncc2c(=O)[nH]c(-c3ccc(C(F)(F)F)cc3)nc21` [Compound I-4, 1-methyl-6-[4-(trifluoromethyl)phenyl]-5H-pyrazolo[3 4-d]pyrimidin-4-one], the IC50 stood at 34.5 nM on tankyrase 2 (TNKS2) and 25 nM at Tankyrase 1 (TNKS1).

Regarding `Cn1ncc2c(=O)[nH]c(N3CCN(c4ccc(F)cc4S(C)(=O)=O)CC3)cc21` [Compound I-25, 6-[4-(4-fluoro-2-methylsulfonyl-phenyl)piperazin-1-yl]-1-methyl-5H-pyrazolo[4 3-c]pyridin-4-one], the IC50 on tankyrase 2 (TNKS2) stood at 45.1 nM; at Tankyrase 1 (TNKS1) it was 44 nM.

For `Cn1ncc2c(=O)[nH]c(N3CCN(c4ccnc(Cl)c4Cl)CC3)nc21` [Compound I-46, 6-[4-(2 3-dichloro-4-pyridyl)piperazin-1-yl]-1-methyl-5H-pyrazolo[3 4-d]pyrimidin-4-one], the IC50 was found to be 93.9 nM on tankyrase 2 (TNKS2) and 61 nM on Tankyrase 1 (TNKS1).

Consider `COCCOc1ccc(N2CCN(c3nc4c(cnn4C)c(=O)[nH]3)CC2)c(F)c1` [Compound I-30, 6-[4-[2-fluoro-4-(2-methoxyethoxy)phenyl]piperazin-1-yl]-1-methyl-5H-pyrazolo[3 4-d]pyrimidin-4-one], for which the concentration for half-maximal inhibition (IC50) at tankyrase 2 (TNKS2) came out at 234 nM; on Tankyrase 1 (TNKS1) it was 13 nM.

As to “6-[4-(4-fluorophenyl)-1- piperidyl]-1-methyl-5H- pyrazolo[4 3-c]pyridin-4- one [Compound I-8]”, the IC50 stood at 42.8 nM on tankyrase 2 (TNKS2) and 42 nM at Tankyrase 1 (TNKS1) (Compounds I-1 to I-58, procedure in Example 118 (TR-FRET, Biotin-IWR2 60 nM, TNKS 60 nM), read-out: TNKS1 (IC50)).

The values are drawn from patent publication US20130345215A1, “PYRAZOLOPYRIMIDONE AND PYRAZOLOPYRIDONE INHIBITORS OF TANKYRASE” (Genentech, Inc., priority 2012, published 2013).
